# From publication doi:10.1101/2023.08.31.555663, “Computational exploration of the global microbiome for antibiotic discovery” (bioRxiv, 2023)
# Where a SMILES comes first, the peptide text is derived from it. Bridges are numbered along the chain shown (N, C = ends). [ ]: non-standard residue; d: D form. The star is where a group is joined. X1 = CC[C@H](C)CCCCC(=O)*; Dab = NCC[C@H](N)C(=O)O
# Legend:
# A. baumannii ATCC 19606 = assay: Skin abscess infection mouse model; assay type: in vivo; conditions: CD-1 mice, n=3
# Experimental: Figure 7. Anti-infective activity of AMPs in pre-clinical animal model. (A) Schematic of the skin abscess mouse model used to assess the anti-infective activity of the peptides against A. baumannii cells. (B) Peptides were tested at their MIC in a single dose one hour after the establishment of the infection. Each group consisted of three mice n=3 and the bacterial loads used to infect each mouse derived from a different inoculum. (C) To rule out toxic effects of the peptides, mouse weight was monitored throughout the experiment. Statistical significance in (B) was determined using one-way ANOVA where all groups were compared to the untreated control group; P-values are shown for each of the groups. Features on the violin plots represent median and upper and lower quartiles. Data in (C) are the mean ± the standard deviation. Figure created in BioRender.com. […]
# To assess the anti-infective efficacy of the peptides against A. baumannii ATCC 19606 in a skin abscess infection mouse model, the bacteria were cultured in tryptic soy broth (TSB) medium until an OD600 of 0.5 was reached. […] The animals were euthanized two- and four-days post-infection, and the infected area was extracted and homogenized for 20 min using a bead beater (25 Hz) and 10-fold serially diluted for CFU quantification on MacConkey agar plates for easy differentiation of A. baumannii colonies. […]
# [1] = tested on: Acinetobacter baumannii ATCC 19606; conditions: broth microdilution, LB broth, 24 h at 37 °C, two-fold dilutions 64 to 1 μmol·L^−1, absorbance 600 nm, mode of three independent replicates
# Experimental: Amino acid composition, structure, antimicrobial activity, and mechanism of action of c_AMPs. […] (AC) Activity of c_AMPs assessed against ESKAPEE pathogens and human gut commensal strains. Briefly, 10^6 CFU·mL^−1 was exposed to c_AMPs two-fold serially diluted ranging from 64 to 1 μmol·L^−1 in 96-wells plates and incubated at 37 °C for one day. After the exposure period, the absorbance of each well was measured at 600 nm. Untreated solutions were used as controls and minimal concentration values for complete inhibition were presented as a heat map of antimicrobial activities (μmol·L^−1) against 11 pathogenic and eight human gut commensal bacterial strains.
smiles,measurement,setting,value
CC[C@H](C)CCCCC(=O)N[C@@H](CCN)C(=O)N[C@H](C(=O)N[C@@H](CCN)C(=O)N[C@H]1CCNC(=O)[C@H]([C@@H](C)O)NC(=O)[C@H](CCN)NC(=O)[C@H](CCN)NC(=O)[C@H](CC(C)C)NC(=O)[C@@H](Cc2ccccc2)NC(=O)[C@H](CCN)NC1=O)[C@@H](C)O [polymyxin B] (X1-[Dab]T[Dab][Dab][Dab][dF]L[Dab][Dab]T; lactam 4-C (inferred); N-terminus assumed),Kind of anti-infective activity against A. baumannii in skin abscess,"A. baumannii ATCC 19606; single dose at MIC on the infected area, two days post-infection",bactericidal activity
same,Reduction of CFU counts compared to the untreated control,"A. baumannii ATCC 19606; skin abscess, A. baumannii, single dose at MIC, four days post-infection",1–2 orders of magnitude
same,"Minimal Inhibitory Concentration, A. baumannii ATCC 19606",[1],0.25 µmol/L
